Reference: PMC9151520 (Archives of Toxicology, 2022)
Values joined by “and” are separate entries in the source; they are usually repeats but may differ in a detail not shown here. Identical values can stand only once. Like-named read-outs stand apart in the source and are kept apart here.

What was measured:
[1] = system: p53 signaling (p53RE-bla HCT-116 cells); assay: cells; format: cell-based
[2] = system: p53 signaling (p53RE-bla HCT-116 cells)
[3] = system: p53 signaling (p53RE-bla HCT-116 cells); remark: listed apart in the source
[4] = Homo sapiens, HCT-116, read-out: p53 activation EC50, cherry pick confirmation
[5] = Homo sapiens, HCT-116, read-out: p53 activation EC50, primary screening
[6] = Homo sapiens, HCT-116, read-out: p53 activation efficacy, cherry pick confirmation
[7] = Homo sapiens, HCT-116, read-out: p53 activation efficacy, primary screening
[8] = read-out: p53 activation EC50, primary screening

Molecule | EC50 [1, 4] | EC50 [1, 5] | Emax [1, 6] | Emax [1, 7] | Viability EC50, cherry pick confirmation (p53RE-bla HCT-116 cells) | Viability EC50, primary screening (p53RE-bla HCT-116 cells) | Viability efficacy, primary screening (p53RE-bla HCT-116 cells) | p53 activation EC50, cherry pick confirmation [2] | p53 activation EC50, primary screening [2] | p53 activation efficacy, cherry pick confirmation [2] | p53 activation efficacy, primary screening [2] | p53 activation EC50, cherry pick confirmation [3] | p53 activation EC50, primary screening [3] | p53 activation efficacy, cherry pick confirmation [3] | p53 activation efficacy, primary screening [3] | p53 activation EC50, cherry pick confirmation [1] | p53 activation efficacy, cherry pick confirmation [1] | p53 activation efficacy, primary screening [1] | Viability efficacy, cherry pick confirmation (p53RE-bla HCT-116 cells) | further results
COc1cccc2c1C(=O)c1c(O)c3c(c(O)c1C2=O)C[C@@](O)(C(=O)CO)C[C@@H]3O[C@H]1C[C@H](N)[C@H](O[C@@H]2CCCCO2)[C@H](C)O1 [Pirarubicin] | 7.61 µM | 2.19 µM | 287% | 142% | inactive | inactive | inactive | inactive | inactive | inactive | inactive | inactive | inactive | inactive | inactive |  |  |  |  | 
NS(=O)(=O)O [Sulfamic acid] |  |  |  |  | inactive | inactive | inactive | inactive | inactive | inactive |  | inactive |  | inactive |  | inactive | inactive | inactive | inactive | p53 activation EC50, primary screening [1]: inactive; EC50 [3, 8]: 24.2 µM
Chlorpyrifos oxon |  |  |  |  |  |  |  |  |  |  |  |  |  |  |  |  |  |  |  | p53 activation EC50 [1]: inactive; p53 activation efficacy [1]: inactive; Viability EC50 (p53RE-bla HCT-116 cells): inactive; Viability efficacy (p53RE-bla HCT-116 cells): inactive; p53 activation EC50 [2]: inactive; EC50 ([2]; read-out: p53 activation EC50): 2.91 µM; EC50 [3]: 0.02 µM; p53 activation efficacy [3]: 33.1727 and 49.6483
COc1ccc(C(=O)/C(Br)=C\C(=O)[O-])cc1.[Na+] [Cytembena] |  |  |  |  | inactive | inactive | inactive | inactive | inactive | inactive | inactive | inactive | inactive | inactive | inactive | inactive | inactive | 55.202 |  | EC50 [1, 8]: 21 µM; EC50 (p53RE-bla HCT-116 cells; read-out: Viability EC50, cherry pick confirmation): 43.2 µM
O=C1c2ccccc2C(=O)C1(O)O [Ninhydrin] | 22.3 µM | 41.2 µM | 44.3% | 55.1% | inactive | inactive | inactive | inactive | inactive | inactive | inactive | inactive | inactive | inactive | inactive |  |  |  | inactive | 
